Literature values in publication PMC13041344 (Antimicrobial Agents and Chemotherapy, 2026).

Details: humans; 2 g q8h as a 3-h infusion

- Cmax: 46000 ng/mL
Structure (SMILES): C[C@@H](O)[C@H]1C(=O)N2C(C(=O)O)=C(S[C@@H]3CN[C@H](C(=O)N(C)C)C3)[C@H](C)[C@H]12 [MEM, meropenem]
